Source: US12520839B2, “Methods and compositions for cryopreservation of cell therapies” (The George Washington University, priority 2020, dated 2026)

Key:
Type in all cases: cell-based
[1] = test system: T cells; test: CD62L expression on T cells after cryopreservation and thawing
Protocol: (§1) A freezing medium (FM) was prepared having 50% RPMI, 40% FBS, 10% DMSO. FM was supplemented with the ADAM17 inhibitor TAPI-2 at amounts indicated in this example. Additionally, a wash medium (WM) was prepared having 50% RPMI, 40% FBS, 10% DMSO and supplemented with TAPI-2 at amounts indicated in this example.
(§2) Experiments were generally performed using in-vitro NK cells and T cells that were isolated and expanded for 14 days in culture. On day 14 of the culture, the NK cells and T cells were cryopreserved the using FM with or without TAPI-2. Then, cells were thawed using WM with or without TAPI-2.
CD62L expression is maintained in T cells in presence of TAPI-2.
Next, T cells were cryopreserved in freezing media without TAPI-2.

[2] = test system: NK cells; test: CD16 expression on NK cells after cryopreservation and thawing
Protocol: as §1, §2
CD16 expression is maintained in NK cells in presence of TAPI-2.

[3] = test system: NK cells; test: NK-cell phenotype by flow cytometry after thawing
Protocol: (§3) Polyclonally activated T cells and expanded NK cells were expanded for 14 and 12 days respectively and cryopreserved using freezing media (FM) with or without TAPI-2 prepared as described in Example 1. Cryovials were then stored in liquid nitrogen tank.
Flow analysis was performed 120 minutes after thawing (except for NKG2D which expression was analyzed immediately after thawing).

[4] = test system: NK cells and T cells; test: Cell viability after thawing, trypan blue exclusion; conditions: TAPI-2 added to freezing medium; immediately and 120 minutes after thawing; FIGS. 6A-6B
Protocol: as §3
Cryovials were thawed in water bath with cell wash performed, cell recovery (FIGS. 5A-5B) and viability (FIGS. 6A-6B) was assessed immediately after thawing. Cell viability was also assessed 120 minutes after thawing (FIGS. 6A-6B). Trypan blue exclusion method was use to evaluate cell viability.

CC(C)C[C@H](CC(=O)NO)C(=O)N[C@H](C(=O)N[C@@H](C)C(=O)NCCN)C(C)(C)C [TAPI-2]
CD62L expression after thawing ([1]; FM containing 50 μM TAPI-2, thawed and not washed, immediately after thawing and 2 hours thereafter, FIG. 3): able to maintain CD62L expression | CD62L expression versus level before cryopreservation ([1]; T cells cryopreserved in FM containing TAPI-2, FIG. 3): retained expression of CD62L to a level that was equal to that before cells were subjected to cryopreservation | CD62L expression after washing with wash medium containing TAPI-2 ([1]; frozen in freezing media without TAPI-2, wash media with 10 μM TAPI-2 (Thaw+), FIG. 4): showed CD62L expression | CD16 expression after thawing ([2]; FM containing 50 μM TAPI-2, thawed and not washed, immediately after thawing and 2 hours thereafter, FIG. 1): able to maintain CD16 expression | CD16 expression versus level prior to cryopreservation ([2]; NK cells cryopreserved in FM containing TAPI-2, FIG. 1): retained expression of CD16 to the same level as prior cryopreservation | CD16 expression after washing with wash medium containing TAPI-2 ([2]; frozen in freezing media without TAPI-2, wash media with 10 μM TAPI-2 (Thaw+), FIG. 2): showed CD16 expression | phenotype ([3]; TAPI-2 added to freezing medium, summary statement): did not negatively affect | NK-cell phenotype ([3]; TAPI-2 in the freezing media, flow analysis 120 minutes after thawing (NKG2D immediately after thawing), FIG. 7): not affected | cell viability [4]: did not negatively affect
